{"source": "paper PMC10443802", "about": "“Targeting a xenobiotic transporter to ameliorate vincristine-induced sensory neuropathy” (JCI Insight, 2023)", "key": {"[1]": {"target": "T1, LYN kinase (Mus musculus, UniProt P25911)", "T1 construct": "from tissue", "T1 sequence (P25911 whole entry)": "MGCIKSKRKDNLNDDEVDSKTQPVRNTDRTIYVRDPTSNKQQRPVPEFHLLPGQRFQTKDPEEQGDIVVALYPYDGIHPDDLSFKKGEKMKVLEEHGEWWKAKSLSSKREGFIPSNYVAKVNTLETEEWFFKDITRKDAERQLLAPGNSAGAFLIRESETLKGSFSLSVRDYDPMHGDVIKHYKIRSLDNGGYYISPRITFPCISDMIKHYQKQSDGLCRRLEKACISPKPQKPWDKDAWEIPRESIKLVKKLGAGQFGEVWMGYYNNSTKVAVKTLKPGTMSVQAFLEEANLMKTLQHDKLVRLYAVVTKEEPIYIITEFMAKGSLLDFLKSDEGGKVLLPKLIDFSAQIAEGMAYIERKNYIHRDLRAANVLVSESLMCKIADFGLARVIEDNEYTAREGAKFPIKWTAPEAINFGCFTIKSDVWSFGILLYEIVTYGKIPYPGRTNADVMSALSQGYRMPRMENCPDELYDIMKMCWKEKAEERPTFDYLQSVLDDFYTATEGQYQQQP", "assay": "Phosphorylation of LYN kinase in DRG of mice (phospho-LYN/total LYN)", "assay_type": "in vivo", "experimental": "mg/kg; p.o.) wild-type mice, using specific antibodies for phospho-LYN and total LYN (n = 3 per group).\n(C) Mechanical allodynia in wild-type mice and LYN-deficient [LYN(-/-)] mice 24 h after a single dose of\nData presented represent the mean (bars) ± SEM (error\nbars), and paw sensitivity is expressed as a percentage over baseline values. Statistical analysis was […]"}, "[2]": {"conditions": "conventional chronic regimen; cited from earlier work"}, "[3]": {"target": "hMATE1 (Homo sapiens, UniProt Q96FL8)", "sequence (Q96FL8 whole entry)": "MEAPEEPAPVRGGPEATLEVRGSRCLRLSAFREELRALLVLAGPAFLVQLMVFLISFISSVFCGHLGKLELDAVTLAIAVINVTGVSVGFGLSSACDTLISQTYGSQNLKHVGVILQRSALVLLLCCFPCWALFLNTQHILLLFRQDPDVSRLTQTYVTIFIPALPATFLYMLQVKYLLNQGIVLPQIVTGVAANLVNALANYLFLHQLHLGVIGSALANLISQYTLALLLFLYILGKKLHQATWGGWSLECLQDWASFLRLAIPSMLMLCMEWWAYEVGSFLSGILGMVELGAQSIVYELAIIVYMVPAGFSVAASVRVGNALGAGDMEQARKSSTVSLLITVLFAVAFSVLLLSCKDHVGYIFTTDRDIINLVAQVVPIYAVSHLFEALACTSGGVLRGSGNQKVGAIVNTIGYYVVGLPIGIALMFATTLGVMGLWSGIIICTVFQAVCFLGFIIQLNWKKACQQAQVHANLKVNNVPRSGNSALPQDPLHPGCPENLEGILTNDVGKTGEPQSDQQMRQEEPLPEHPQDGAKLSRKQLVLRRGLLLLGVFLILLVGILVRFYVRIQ", "assay": "Substrate uptake in HEK293 cells overexpressing hMATE1", "conditions": "HEK293 human MATE1", "quoted_text": "on OATP1B1, OATP1B3, or OATP1B2 function was evaluated using EβG (Axxora LLC) as the\ntransfected with transporters of interest, including hOAT1, hOAT3, hOAT4, hOATP1A2, hOATP3A1, hOATP4A1, hOATP5A1, hOATP1C1, hOATP1B1, hOATP1B3, hOATP2B1, hOCT1, hOCT2, hOCTN1, hOCTN2, hASBT, hNTCP, hNPT1, hMATE1, hOSTα/β, hPEPT1, hPEPT2, rOatp1a1, rOatp1a4, rOatp1a5, rOatp1b2, rNtcp, rAsbt, rOat1, and rOct1. Cells were transfected with expression plasmid or vector control lacking any insert using Lipofectin reagent (Invitrogen). Sixteen hours thereafter, cells were washed with transport media (OPTIMEM, Invitrogen) and treated with radiolabeled drug. At various time intervals, cells were washed three times with ice-cold PBS and then lysed with 1% sodium dodecyl sulfate. The cellular radioactivity was quantified by liquid scintillation counting as described above. Similar analyses were performed in HEK293 cells transfected with hOATP1A2, hOATP1C1, mMATE1, and hMATE1, with cells seeded in poly lysine pre-coated 12-well plates. For hOATP1A2 and hOATP1C1, transient transfections were performed with either an empty vector, OATP1A2, or OATP1C1 using Lipofectamine 2000 according to the manufacturers protocol (Invitrogen)."}, "[4]": {"target": "hOATP3A1 (Homo sapiens, UniProt Q9UIG8)", "sequence (Q9UIG8 whole entry)": "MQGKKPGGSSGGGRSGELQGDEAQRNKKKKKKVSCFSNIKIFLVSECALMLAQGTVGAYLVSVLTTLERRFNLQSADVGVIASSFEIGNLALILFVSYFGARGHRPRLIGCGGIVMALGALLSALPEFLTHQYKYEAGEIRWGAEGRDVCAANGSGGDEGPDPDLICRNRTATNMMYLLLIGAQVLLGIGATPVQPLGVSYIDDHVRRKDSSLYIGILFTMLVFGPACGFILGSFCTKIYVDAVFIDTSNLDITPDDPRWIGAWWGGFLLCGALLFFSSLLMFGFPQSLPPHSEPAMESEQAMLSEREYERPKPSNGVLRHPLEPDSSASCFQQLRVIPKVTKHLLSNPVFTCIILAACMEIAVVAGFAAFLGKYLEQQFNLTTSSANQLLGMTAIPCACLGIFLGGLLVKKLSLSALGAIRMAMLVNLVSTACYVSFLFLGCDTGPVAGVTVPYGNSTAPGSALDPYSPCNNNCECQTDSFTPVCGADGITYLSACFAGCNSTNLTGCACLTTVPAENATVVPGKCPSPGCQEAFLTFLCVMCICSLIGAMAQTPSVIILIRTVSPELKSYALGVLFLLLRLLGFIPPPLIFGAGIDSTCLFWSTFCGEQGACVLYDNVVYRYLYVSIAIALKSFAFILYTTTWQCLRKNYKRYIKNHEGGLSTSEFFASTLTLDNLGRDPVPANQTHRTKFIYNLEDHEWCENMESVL", "assay": "Vincristine uptake screen, HeLa cells overexpressing hOATP3A1", "assay_type": "in vitro ADME", "experimental": "Relative uptake is expressed as percentage change compared with empty vector controls (n = 4–14 per group). […] Human OATP1B1 and OATP1B3 transporter–overexpressed cells were used as positive controls; empty vector controls were used as the negative control. […] Mechanical allodynia (C), thermal hyperalgesia (D), and sciatic nerve maximal action potential amplitudes (E) are expressed as percentage change relative to baseline values (n = 6–8 per group). Statistical analysis was performed using a 2-way ANOVA with Bonferroni’s post hoc test. **P < 0.01, ***P < 0.001, ****P < 0.0001, compared with baseline values. […] Data are shown as mean ± SEM. […]\ntransfected with transporters of interest, including hOAT1, hOAT3, hOAT4, hOATP1A2, hOATP3A1, hOATP4A1, hOATP5A1, hOATP1C1, hOATP1B1, hOATP1B3, hOATP2B1, hOCT1, hOCT2, hOCTN1, hOCTN2, hASBT, hNTCP, hNPT1, hMATE1, hOSTα/β, hPEPT1, hPEPT2, rOatp1a1, rOatp1a4, rOatp1a5, rOatp1b2, rNtcp, rAsbt, rOat1, and rOct1. Cells were transfected with expression plasmid or vector control lacking any insert using Lipofectin reagent (Invitrogen). Sixteen hours thereafter, cells were washed with transport media (OPTIMEM, Invitrogen) and treated with radiolabeled drug. […] The cellular radioactivity was quantified by liquid scintillation counting as described above. […]"}, "[5]": {"assay": "Plasma pharmacokinetics of vincristine in mice", "conditions": "for concentration at 1 h / concentration at 4 h / concentration at 0.5 h / concentration at 0.25 h / AUC(0-t) / Cmax / concentration at 2 h: mouse, in vivo; for AUC(0-t) / Cmax: male; for AUC(0-t): AUC0-4h", "experimental": "were collected at the final time point. […]\nspecimens were stored at -80°C until further processing. […]\nstainless steel bead (Qiagen) and processed for 4 min at 40 Hz. Finally, the beads were removed, and the homogenized samples were stored at -80°C until analysis by LC-MS/MS.\nPharmacokinetic parameters were calculated by non -compartmental analysis using Phoenix WinNonlin version 8.0 (Certara). Peak plasma concentration (C max) was determined by visual inspection of the data from the concentration-time curves. The linear trapezoidal rule was used to obtain the area under the plasma concentration-time curve (AUC), and drug levels in tissues were corrected for […]\nDetermination of drug levels.\nQuantiva triple quadrupole mass spectrometer from Thermo Fisher Scientific was used for LC-MS/MS […]\ncolumn was maintained at 50°C. […]\nquantification was 5 ng/mL.\n450 °C. […] Precursor molecular ions and […]\ndose of 4 mg/kg. […] The sample\nMorphologic and morphometric evaluation. […]\nfor light microscopy and morphometric analysis."}, "[6]": {"system": "THP1", "assay": "Cytotoxicity of vincristine with or without nilotinib, MTT assay, THP1", "assay_type": "cell-based, human", "conditions": "individual replicates"}, "[7]": {"system": "CCRF", "assay": "Cytotoxicity of vincristine with or without nilotinib, MTT assay, CCRF", "assay_type": "cell-based, human", "conditions": "CCRF cells, vincristine alone, individual replicates"}, "[8]": {"conditions": "DBA/1LacJ, ip, 1 mg/kg, Plasma concentration of vincristine"}, "[9]": {"conditions": "ip, 1 mg/kg, Plasma concentration of vincristine"}}, "note": "Several values for one entry are separate records, joined by “and”; a condition that tells them apart may be missing. Equal entries are not always repeated.", "data": [{"smiles": "Cc1cn(-c2cc(NC(=O)c3ccc(C)c(Nc4nccc(-c5cccnc5)n4)c3)cc(C(F)(F)F)c2)cn1", "note": "[Nilotinib, nilotinib]", "values": [{"measurement": "DRG Phosho-LYN/Total LYN (% of Untreated)", "setting": "[1]; DRG of mice", "value": "47.9691 % of Untreated and 52.4315 % of Untreated and 37.2669 % of Untreated"}, {"measurement": "Phosphorylated-LYN in DRG neurons", "setting": "[1]; nilotinib 100 mg/kg p.o., wild-type mice", "value": "significant inhibition of phosphorylated-LYN in DRG neurons"}, {"measurement": "Median time from start of therapy to onset of QT events", "setting": "[2]", "value": "> 14", "unit": "months"}, {"measurement": "Range of time from start of therapy to onset of QT events", "setting": "[2]", "value": "2–68 months"}]}, {"smiles": "CC[C@]1(O)C[C@H]2CN(CCc3c([nH]c4ccccc34)[C@@](C(=O)OC)(c3cc4c(cc3OC)N(C=O)[C@H]3[C@@](O)(C(=O)OC)[C@H](OC(C)=O)[C@]5(CC)C=CCN6CC[C@]43[C@@H]65)C2)C1", "note": "[Vincristine, vincristine]", "values": [{"measurement": "Contribution of transporter to cellular uptake of vincristine", "setting": "[3]", "value": "do not appreciably contribute to the cellular uptake of vincristine"}, {"measurement": "Vincristine uptake (% of vector control)", "setting": "[4]", "value": "104.00 % of vector control and 96.00 % of vector control and 76.00 % of vector control and 101.00 % of vector control and 79.00 % of vector control and 120.00 % of vector control and 100.00 % of vector control and 111.00 % of vector control"}, {"measurement": "concentration at 1 h", "setting": "[5]; DBA/1LacJ, 1 mg/kg, Plasma concentration of vincristine, OATP1B2(-/-) + Vehicle, vincristine 1 mg/kg, 1 h", "value": 88.4, "unit": "ng/mL"}, {"measurement": "concentration at 4 h", "setting": "[5]; DBA/1LacJ, 1 mg/kg, Plasma concentration of vincristine, OATP1B2(-/-) + Vehicle, vincristine 1 mg/kg, 4 h", "value": 65.5, "unit": "ng/mL"}, {"measurement": "concentration at 0.5 h", "setting": "[5]; DBA/1LacJ, Plasma concentration of vincristine, OATP1B2(-/-) + Nilotinib (100 mg/kg pretreatment), vincristine 1 mg/kg, 0.5 h", "value": 225, "unit": "ng/mL"}, {"measurement": "concentration at 1 h", "setting": "[5]; DBA/1LacJ, Plasma concentration of vincristine, OATP1B2(-/-) + Nilotinib (100 mg/kg pretreatment), vincristine 1 mg/kg, 1 h", "value": 108, "unit": "ng/mL"}, {"measurement": "concentration at 0.25 h", "setting": "[5]; [8]", "value": 707, "unit": "ng/mL"}, {"measurement": "concentration at 0.5 h", "setting": "[5]; [8]", "value": 599, "unit": "ng/mL"}, {"measurement": "concentration at 1 h", "setting": "[5]; [8]", "value": 315, "unit": "ng/mL"}, {"measurement": "concentration at 4 h", "setting": "[5]; [8]", "value": 90.9, "unit": "ng/mL"}, {"measurement": "Plasma concentration of Vincristine", "setting": "[5]; Wild-type mice, 2 h", "value": 104.1, "unit": "ng/mL"}, {"measurement": "AUC(0-t)", "setting": "[5]; DBA/1LacJ, ip, 1 mg/kg", "value": "1290 ± 49.8", "unit": "ng·h/mL"}, {"measurement": "Cmax", "setting": "[5]; DBA/1LacJ, ip, 1 mg/kg", "value": "1130 ± 148", "unit": "ng/mL"}, {"measurement": "AUC(0-t)", "setting": "[5]; ip, 1 mg/kg", "value": "1060 ± 36.2", "unit": "ng·h/mL"}, {"measurement": "Cmax", "setting": "[5]; ip, 1 mg/kg", "value": "1190 ± 113", "unit": "ng/mL"}, {"measurement": "concentration at 1 h", "setting": "[5]; 1 mg/kg, Plasma concentration of Vincristine (ng/mL), OATP1A/1B(-/-) mice, 1 h", "value": 195, "unit": "ng/mL"}, {"measurement": "concentration at 2 h", "setting": "[5]; 1 mg/kg, Plasma concentration of Vincristine (ng/mL), OATP1A/1B(-/-) mice, 2 h", "value": 89.9, "unit": "ng/mL"}, {"measurement": "concentration at 2 h", "setting": "[5]; 1 mg/kg, Plasma concentration of Vincristine (ng/mL), Wild-type mice, 2 h", "value": 112, "unit": "ng/mL"}, {"measurement": "concentration at 1 h", "setting": "[5]; 1 mg/kg, Plasma concentration of vincristine, Wild-type + Vehicle, vincristine 1 mg/kg, 1 h", "value": 116, "unit": "ng/mL"}, {"measurement": "concentration at 0.5 h", "setting": "[5]; Plasma concentration of vincristine, Wild-type + Nilotinib (100 mg/kg pretreatment), vincristine 1 mg/kg, 0.5 h", "value": 124, "unit": "ng/mL"}, {"measurement": "concentration at 1 h", "setting": "[5]; Plasma concentration of vincristine, Wild-type + Nilotinib (100 mg/kg pretreatment), vincristine 1 mg/kg, 1 h", "value": 104, "unit": "ng/mL"}, {"measurement": "concentration at 0.25 h", "setting": "[5]; [9]", "value": 735, "unit": "ng/mL"}, {"measurement": "concentration at 0.5 h", "setting": "[5]; [9]", "value": 376, "unit": "ng/mL"}, {"measurement": "concentration at 1 h", "setting": "[5]; [9]", "value": 273, "unit": "ng/mL"}, {"measurement": "concentration at 4 h", "setting": "[5]; [9]", "value": 114, "unit": "ng/mL"}, {"measurement": "concentration at 4 h", "setting": "[5]; ip, 1 mg/kg, Plasma concentration of vincristine, Wild-type mice, 1 mg/kg i.p., 4 h", "value": 102, "unit": "ng/mL"}, {"measurement": "IC50", "setting": "[6]; Homo sapiens, THP-1, THP1 cells, vincristine + 1μM Nilotinib", "value": 11, "unit": "nM"}, {"measurement": "IC50", "setting": "[6]; Homo sapiens, THP-1, THP1 cells, vincristine alone", "value": 15.4, "unit": "nM"}, {"measurement": "IC50", "setting": "[6]; THP1 cells, vincristine alone", "value": "14.4 nM (2×) and 15.4 nM and 15.1 nM and 14.6 nM and 10.5 nM and 10.2 nM and 16.9 nM"}, {"measurement": "IC50", "setting": "[7]", "value": "4.56 nM and 4.49 nM and 1.65 nM and 7.48 nM and 6.4 nM and 5.53 nM and 3.87 nM and 3.24 nM and 7.33 nM"}]}]}
